Data: ChEMBL document CHEMBL1131891, “Antiplatelet actions of aporphinoids from Formosan plants” (Bioorg Med Chem Lett, 1999)
pIC50: −log10 of the molar value.

Key:
Type in all cases: functional
Oryctolagus cuniculus [1] = species: Oryctolagus cuniculus; assay: Effect on platelet aggregation induced by arachidonic acid(AA) in washed rabbit platelet
Oryctolagus cuniculus [2] = species: Oryctolagus cuniculus; assay: Effect on platelet aggregation induced by adenosine 5'-diphosphate (ADP) in washed rabbit platelet
Oryctolagus cuniculus [3] = species: Oryctolagus cuniculus; assay: Inhibitory activity against platelet aggregation induced by platelet activating factor(PAF) in washed rabbit platelet
Oryctolagus cuniculus [4] = species: Oryctolagus cuniculus; assay: Effect on platelet aggregation induced by platelet activating factor(PAF) in washed rabbit platelet
Oryctolagus cuniculus [5] = species: Oryctolagus cuniculus; assay: Inhibitory activity against platelet aggregation induced by arachidonic acid(AA) in washed rabbit platelet
Oryctolagus cuniculus [6] = species: Oryctolagus cuniculus; assay: Effect on platelet aggregation induced by collagen in washed rabbit platelet
Oryctolagus cuniculus [7] = species: Oryctolagus cuniculus; assay: Inhibitory activity against platelet aggregation induced by collagen in washed rabbit platelet

SMILES | Aggregation (Oryctolagus cuniculus [1]) [%] | Aggregation (Oryctolagus cuniculus [2]) [%] | pIC50 (Oryctolagus cuniculus [3]; read-out: IC50) | Aggregation (Oryctolagus cuniculus [4]) [%] | pIC50 (Oryctolagus cuniculus [5]; read-out: IC50) | Aggregation (Oryctolagus cuniculus [6]) [%] | pIC50 (Oryctolagus cuniculus [7]) | pIC50 (Oryctolagus cuniculus [3]) | pIC50 (Oryctolagus cuniculus [5]) | pIC50 (Oryctolagus cuniculus [7]; read-out: IC50)
COc1cc2c(cc1OC)C(O)C1c3c(c(OC)c(OC)c(OC)c3-2)CCN1C (configuration not stated) | 0 | 34.5 | 4.93 | 0 | 4.15 | 0 | – | – | – | –
COc1cc2c3c(c1O)-c1ccccc1CC3N(C)CC2 (configuration not stated) | 0 | 86.3 | – | 51.7 | 3.77 | 0 | – | – | – | –
COc1cc2c(cc1OC)C(O)C1c3c(cc(OC)c(OC)c3-2)CCN1C (configuration not stated) | 21.8 | 78.3 | 4.28 | 0 | – | 12.7 | – | – | – | –
COc1cc2c(cc1O)C[C@H]1c3c(cc(OC)c(OC)c3-2)CC[N+]1(C)C.[I-] | 88.1 | 87.6 | – | 82.7 | – | 81.3 | – | – | – | –
COc1ccc2c(c1OC)-c1c(OC)c(O)cc3c1[C@H](C2)N(C)CC3 | 86.5 | 89.4 | – | 78.6 | – | 83.5 | – | – | – | –
COc1cc2c(cc1OC)-c1c3c(cc4c1[C@H](C2)N(OC)CC4)OCO3 | 80.9 | 86.8 | – | 92.2 | – | 87.3 | – | – | – | –
CC1=NN(c2ccc([N+](=O)[O-])cc2)C(=O)C1[N+](=O)[O-].COc1cc2c(cc1O)C[C@@H]1NCCc3cc(O)c(OC)c-2c31 | 0 | 92.1 | – | 79.3 | 3.83 | 4.6 | – | – | – | –
COc1cc2c3c(c1OC)-c1ccccc1C[C@@H]3NCC2 | 0 | 77.1 | – | 30.6 | 3.68 | 0 | – | – | – | –
COc1c(O)ccc2c1-c1c(OC)c(O)cc3c1[C@H](C2)[N+](C)(C)CC3.[I-] | 83.7 | 90.7 | – | 85.5 | – | 89.8 | – | – | – | –
COc1ccc2c(c1OC)-c1c3c(cc4c1[C@H](C2)[N+](C)(C)CC4)OCO3.[I-] | 89 | 88.6 | – | 83.9 | – | 77.6 | – | – | – | –
Br.COc1c(O)ccc2c1-c1c3c(cc4c1[C@H](C2)NCC4)OCO3 | 60 | 91.8 | – | 91.6 | – | 0 | – | – | – | –
COc1c(O)ccc2c1-c1c(OC)c(O)cc3c1[C@H](C2)NCC3.Cl | 0 | 10.5 | – | 4 | 3.78 | 0 | – | – | – | –
CC(=O)Oc1ccccc1C(=O)O [ASPIRIN] | 0 | 77.9 | – | 90.4 | – | 87.4 | < 3.00 | < 3.00 | 3.78 | –
COc1ccc2c(c1OC)-c1c(OC)c(OC)cc3c1[C@H](C2)[N+](C)(C)CC3.[I-] [ISOCORYDINE METHIODIDE] | 71 | 90.2 | – | 85.6 | – | 87.9 | – | – | – | –
CN1CCc2cc3c(c4c2[C@H]1Cc1ccccc1-4)OCO3.Cl [REMERINE HYDROCHLORIDE] | 0 | 67.2 | – | 27.8 | 3.71 | 0 | – | – | – | 4.05
